Test results taken from publication PMC10882157 (Diabetes, 2023).
Where “and” joins values, the source holds several entries; their conditions need not be identical. Equal values may be shown once.

Key:
rat L6 myoblasts = experiment: Cellular oxygen consumption rate; assay type: cell-based
L6 myoblasts = experiment: Whole-cell current clamp recording of plasma membrane potential; assay type: cell-based, rat; conditions: n = 8
[1] = Mouse pharmacokinetics and oral bioavailability; assay type: in vivo, C57BL/6J mice; conditions: C57BL/6J, plasma, 10 mg/kg
[2] = Rat pharmacokinetics and oral bioavailability; assay type: in vivo, Sprague-Dawley rats; conditions: Sprague-Dawley, serum
[3] = Intrinsic clearance in human liver microsomes; assay type: in vitro ADME
mice [4] = experiment: Dose escalation tolerability study by oral gavage; assay type: in vivo, mouse
C57BL/6J mouse tissue = experiment: High-resolution respirometry; assay type: in vivo, C57BL/6J mice; conditions: 2 h after oral gavage of 30 mg/kg
mice [5] = experiment: Whole-body OCR by indirect calorimetry; assay type: in vivo, mouse; conditions: 40 mg/kg oral gavage
C57BL/6J mice fed the WD = experiment: Western diet-induced adiposity reversal study; assay type: in vivo
[6] = Tissue concentrations at study termination; assay type: in vivo, C57BL/6J mice; conditions: for concentration at 6 weeks: C57BL/6J, mouse, oral, 38 mg/kg per day (0.04% w/w in diet)
[7] = test system: ACC, pSer79-ACC, FAS, AMPK (pThr172); assay type: in vivo, mouse; conditions: mice fed SHD865 in the WD
[8] = test system: β-hydroxy-acyl-CoA dehydrogenase (HAD); experiment: Enzyme activity of HAD in WD-fed mice; assay type: in vivo, mouse; conditions: mice fed SHD865 in the WD
[9] = test system: medium-chain acyl-CoA dehydrogenase (MCAD); experiment: Enzyme activity of MCAD in WD-fed mice; assay type: in vivo, mouse; conditions: mice fed SHD865 in the WD
L6 cells = experiment: Mitochondrial stress test; conditions: drug 50 μmol/L, oligomycin 1 μmol/L
[10] = second cohort, versus WD-fed controls, 4–5 h fasting

## COc1nc2nc(C(F)(F)F)[nH]c2nc1Nc1ccc(OC(F)(F)F)cc1F [SHD865, N-[2-fluoro-4-[trifluoromethoxy]phenyl]-5-methoxy-2-[trifluoromethyl]-1H-imidazo[4,5-b]pyrazine-6-amine]
Rat L6 myoblasts
  uncoupled respiration across concentration range: maintained uncoupled respiration at a stable rate across a large concentration range
Rat L6 myoblasts; Fig. 1B
  bioactive concentration range in vitro: > 10 µmol/L
Rat L6 myoblasts; dose response 0.4 to 50 μmol/L
  increase of cellular OCR, as % of the maximal OCR induced by BAM15 and FCCP: ~90%
L6 myoblasts; 25 μmol/L
  plasma membrane depolarization: 1.4 ± 0.4 mV
[1]
  Cmax: 9.1 µM
  half-life: 1.7 h
[2]
  half-life: 1.7 h
[3]
  microsomal CLint: < 116 µL/min/mg
Mice [4]; C57BL/6J mice, 1,000 mg/kg oral
  adverse effects after acute oral bolus: no adverse effects
Mice [4]; mice, oral gavage 300 and 1,000 mg/kg, 24-h observation
  behavioral signs of distress or ill thrift: no behavioral signs of distress or ill thrift were observed
Mice [4]; mice, oral gavage 300 and 1,000 mg/kg, 24 h
  effect on body (rectal) temperature: no effect on body temperature was detected
Mice [4]; ∼38 mg/kg per day in diet versus 1,000 mg/kg acute oral
  efficacious dose relative to dose level with no observed adverse effect: 27 fold
C57BL/6J mouse tissue
  mitochondrial activity in liver, muscle, heart, white and brown fat: only the liver had significantly increased mitochondrial activity
Mice [5]
  time for respiration to return to normal: 4 h
Mice [5]; first hour after treatment
  increase in whole-body OCR compared with vehicle: up to 26%
C57BL/6J mice fed the WD; 0.04% w/w in WD
  fecal triglyceride levels compared with WD-fed mice: did not alter fecal triglyceride levels
  postprandial plasma cholesterol compared with pretreatment: significantly lowered
  postprandial plasma triglyceride compared with pretreatment: significantly lowered
  random-fed blood glucose compared with WD-fed controls: decrease
  random-fed insulin levels compared with WD-fed controls: decrease
  skeletal muscle triglyceride content: completely normalized
C57BL/6J mice fed the WD; 0.04% w/w in WD (∼38 mg/kg per day), first 2 weeks of treatment
  body weight and body fat mass composition: recovered normal body weight and body fat mass composition similar to the lean chow-fed control mice
C57BL/6J mice fed the WD; 0.04% w/w in WD, 6 weeks
  WD-induced fat gain (EchoMRI and terminal gonadal fat pad mass): completely reversed the WD-induced fat gain
  food intake: without a decrease in food intake
  lipid droplet accumulation in liver tissue (hematoxylin and eosin staining): decreased lipid droplet accumulation
  liver cholesterol concentrations: lower than WD-fed control mice and similar to chow-fed mice
  liver triglyceride levels: between those of chow-fed and WD-fed mice without being statistically different from either group
C57BL/6J mice fed the WD; 0.04% w/w in WD, 6 weeks, both cohorts
  blood ALT levels: did not raise ALT levels
C57BL/6J mice fed the WD; 0.04% w/w in WD, after 5 weeks of treatment
  glucose tolerance (GTT at week 9): completely reversed glucose intolerance
C57BL/6J mice fed the WD; second cohort of mice
  insulin levels during GTT, lower than WD-fed controls: 20–30%
C57BL/6J mice fed the WD; [10]
  hepatic triglyceride production using poloxamer 407: neither experiment showed a phenotype
  triglyceride clearance by oral triglyceride tolerance test (OTTT): neither experiment showed a phenotype
[6]; brown fat
  concentration at 6 weeks: 18000 ng/g
[6]; gonadal fat
  concentration at 6 weeks: 27000 ng/g
[6]; liver
  concentration at 6 weeks: 14500 ng/g and ~34 µM
[6]; study termination, 0.04% w/w in WD
  steady-state tissue distribution: primarily localized to adipose and liver tissue depots, with lesser exposure in quadriceps muscle, heart, and brain
[7]
  ACC expression versus WD-fed control mice: lower
  FAS expression versus WD-fed control mice: lower
  Ser79 phosphorylation of ACC: trend for increased Ser79 phosphorylation of ACC
  phosphorylation of AMPK-Thr172: increased phosphorylation of AMPK-Thr172
[8]
  decrease of HAD activity versus WD-fed control: 12%
[9]
  MCAD activity: no treatment had any effect
L6 cells
  mitochondrial respiration in the presence of oligomycin: increase mitochondrial respiration in the presence of the ATP synthase inhibitor oligomycin
  spare respiratory capacity, % of BAM15-treated cells: ~90%

## N#CC(C#N)=NNc1ccc(OC(F)(F)F)cc1 [FCCP, carbonylcyanide p-(trifluoromethoxy)phenylhydrazone, reference compound]
Rat L6 myoblasts; read-out: EC50 (OCR), average values, dose response 0.4 to 50 μmol/L
  EC50: 1.2 µM
L6 myoblasts; 10 μmol/L
  plasma membrane depolarization: 4.9 ± 1.0 mV
